# Results as given in patent US20220213436A1, “BRAIN ORGANOID MACHINE INTERFACE” (The Regents of the University of California, priority 2019, published 2022).
# Test system: cortical organoids
# Experiment: Pharmacological manipulation of cortical organoid network activity recorded by multi-electrode array (MEA)
# Format: cell-based, human
# Conditions: not given
row,Structure (SMILES),neuronal electrical activity
1,NC1=N[C@H](O)[C@H]2[C@H]3O[C@]4(O)O[C@@H]([C@@H](O)[C@@]2(N1)[C@@H]4O)[C@]3(O)CO [tetrodotoxin],blocked

# Same assay, conditions: 8-month-old organoids; recording 15 min after addition; 20 μM AP5, 20 μM CNQX, 50 μM muscimol, 25 μM baclofen, 10 μM bicuculline
Structure (SMILES),number of bursts / burst activity,synchronous activity / synchrony indexes
NC(CCCP(=O)(O)O)C(=O)O (stereo not drawn) [AP5],significantly reducing,extinction
N#Cc1cc2[nH]c(=O)c(=O)[nH]c2cc1[N+](=O)[O-] [CNQX],significantly reducing,extinction
NCC(CC(=O)O)c1ccc(Cl)cc1 (stereo not drawn) [baclofen],significantly reducing,extinction
NCc1cc(=O)[nH]o1 [muscimol],significantly reducing,extinction
